Values quoted from earlier work in patent US20120058950A1, “DETECTION OF NEUROPEPTIDES ASSOCIATED WITH PELVIC PAIN DISORDERS AND USES THEREOF” (University of Vermont and State Agricultural College, priority 2003, published 2012).
No end group written: not given here.

Substance: Pituitary Adenylate Cyclase Activating Peptide (HSDGIFTDSYSRYRKQMAVKKYLAAVLGKRYKQRVKNK; ends and bridges not checked; UniProt P18509 132-169, looked up) [PACAP]
- activity when infused near the bladder (bladder): has activity when infused near the bladder
- bladder activity in vitro (contraction of detrusor, alteration of electrically or cholinergically elicited contractions) (detrusor): no bladder activity in vitro
